Marks after values point to notes of the source that are not given here.
Experiments:
[1] = assumption used for Table 3; cited from earlier work
[2] = Binding of anticoagulants to DAP (DLS; summary Tables 2 and 3); conditions: lowest DAP:anticoagulant ratio with association above 50 nm apparent diameter in phosphate buffered saline
[3] = tested on: apixaban (ELIQUIS®) anticoagulation; assay: Rat tail transection bleeding assay, apixaban; format: in vivo; conditions: apixaban, oral; Bleeding assay; minimal in vivo reversal dose; assumes 50% oral bioavailability
Experimental: (§1) Rat tail bleeding assay or rat tail transection assay is an assay that measures blood loss, e.g., blood loss after drug administration. In one embodiment, where the effect of the compound of the invention (e.g., DAP) is being tested, at the Tmax of the anticoagulant, DAP is administered intravenously. After 20 minutes, rat tails are transected approximately 1 mm from the tip, placed in room temperature saline, and blood is collected for 30 minutes and weighed.
(§2) Three rats each were administered 2 mg of rivaroxaban. One rat received a sham reversal containing no DAP, the second received 2.5 mg of DAP, and the third received 12.5 mg DAP. A fourth fat received sham anticoagulant and reversal doses (“sham”). 20 minutes after the reversal dose, tails were transected 1 mm from the tip, placed in room temperature saline, and blood loss was collected for 30 minutes and then weighed.
Same procedures were used with 1.25 mg apixaban (ELIQUIS®) alone or in combination with 5 or 12.5 mg DAP; with 15.5 mg dabigatran etexilate (PRADAXA®) alone or in combination with 5 or 12.5 mg DAP; and with 5 mg edoxaban (LIXIANA®) alone or in combination with 12.5 mg DAP.

[4] = tested on: rivaroxaban anticoagulation; assay: Rat tail transection bleeding assay, rivaroxaban; format: in vivo; conditions: rivaroxaban, oral; Bleeding assay; minimal in vivo reversal dose; assumes 60% oral bioavailability
Experimental: as §1, §2

[5] = cited from earlier work
[6] = tested on: fondaparinux anticoagulation; assay: DAP reversal of fondaparinux (ARIXTRA®) anticoagulation in vivo, chromogenic Factor Xa assay; design: species or system rat; conditions: fondaparinux s.c.; Xa kit; 200 mg/kg DAP was the lowest dose administered
Experimental: The anti-factor Xa assay directly measures anti-factor Xa activity. The methodology behind an anti-factor Xa assay is that patient plasma is added to a known amount of excess factor Xa and excess antithrombin. If a factor Xa inhibitor is present in the patient plasma, it will reduce the enzymatic activity of factor Xa. The amount of residual factor Xa is inversely proportional to the amount of anti-Xa agent in the plasma. The amount of residual factor Xa is detected by adding a chromogenic substrate that mimics the natural substrate of factor Xa, making residual factor Xa cleave it, releasing a colored compound that can be detected by a spectrophotometer. […] Results are given in anticoagulant concentration in units/mL of antifactor Xa, such that high values indicate high levels of anticoagulation and low values indicate low levels of anticoagulation.
5 mg/kg fondaparinux was administered subcutaneously to rats. 200 mg/kg DAP was administered intravenously after 2 hours. Activity was measured by chromogenic 510 k cleared Factor Xa Assay (Biophen) at 10, 20, 30 and 60 minutes after DAP administration.

[7] = tested on: Factor Xa; conditions: cited from earlier work
[8] = tested on: dabigatran (PRADAXA®) anticoagulation; assay: DAP reversal of dabigatran (PRADAXA®) anticoagulation in vivo, aPTT; design: species or system rat; conditions: 40 mg/kg oral gavage, 2 hours; baseline 43 seconds
Description: The activated partial thromboplastin time (aPTT) assay is an assay that measures how long it takes for the blood to clot. Blood samples are collected for direct measurement or in tubes with oxalate and citrate to arrest coagulation by calcium until the assay can be performed. In the assay, a phospholipid, an activator (silica, celite, kaolin, ellagic acid, etc.), and calcium are mixed into the plasma to induce coagulation. The assay measures the time until a thrombus (clot) forms.
A male albino rat, weighing 430 g, was administered 40 mg/kg of PRADAXA® (20 mg PRADAXA®; overdose of PRADAXA®) by oral gavage.
Approximately 2 hours into PRADAXA® treatment, 200 mg/kg DAP (100 mg DAP) was administered as an intravenous bolus injection. Approximately 2 hours later, the rat was administered a dose of 100 mg/kg of DAP (50 mg DAP). In another hour, the rat was administered another dose of 100 mg/kg of DAP (50 mg DAP). aPTT was measured throughout the course of the entire treatment.

Row | DLS Binding Molar Ratio [DAP/drug] [2] | SMILES | oral bioavailability (assumed) [1] [%] | Reversal Molar Ratio [DAP/drug] [3] | Reversal Molar Ratio [DAP/drug] [4] | time to peak steady-state plasma concentration ([5]; patients, 2.5 mg once daily, post-dose) | absolute bioavailability ([5]; subcutaneous injection) [%] | Reversal Molar Ratio [DAP/drug] [6] | potentiation of innate neutralization of Factor Xa by ATIII [7] | aPTT after PRADAXA® administration [8] [s]
1 | 10 | COc1ccc(-n2nc(C(N)=O)c3c2C(=O)N(c2ccc(N4CCCCC4=O)cc2)CC3)cc1 [Apixaban, 1-(4-methoxyphenyl)-7-oxo-6-[4-(2-oxopiperidin-1-yl)phenyl]-4,5-dihydropyrazolo[5,4-c]pyridine-3-carboxamide] | 50 | 8* |  |  |  |  |  | 
2 | 9 | O=C(NC[C@H]1CN(c2ccc(N3CCOCC3=O)cc2)C(=O)O1)c1ccc(Cl)s1 [Rivaroxaban, 5-Chloro-N-({(5S)-2-oxo-3-[4-(3-oxo-4-morpholinyl)phenyl]-1,3-oxazolidin-5-yl}methyl)-2-thiophenecarboxamide] | 60 |  | 3* |  |  |  |  | 
3 |  | CCCCCCOC(=O)NC(=N)c1ccc(NCc2nc3cc(C(=O)N(CCC(=O)OCC)c4ccccn4)ccc3n2C)cc1.CS(=O)(=O)O [Dabigatran etexilate, β-Alanine, N-[[2-[[[4-[[[(hexyloxy)carbonyl]amino]iminomethyl]phenyl]amino]methyl]-1-methyl-1H-benzimidazol-5-yl]carbonyl]-N-2-pyridinyl-,ethyl ester, methanesulfonate] | 5 |  |  |  |  |  |  | 81

Row | SMILES | DLS Binding Molar Ratio [DAP/drug] [2] | oral bioavailability (assumed) [1] [%] | Reversal Molar Ratio [DAP/drug] [3] | Reversal Molar Ratio [DAP/drug] [4] | time to peak steady-state plasma concentration ([5]; patients, 2.5 mg once daily, post-dose) | absolute bioavailability ([5]; subcutaneous injection) [%] | Reversal Molar Ratio [DAP/drug] [6] | potentiation of innate neutralization of Factor Xa by ATIII [7] | aPTT after PRADAXA® administration [8] [s]
4 | CO[C@H]1O[C@H](COS(=O)(=O)[O-])[C@@H](O[C@@H]2O[C@@H](C(=O)[O-])[C@@H](O[C@H]3O[C@H](COS(=O)(=O)[O-])[C@@H](O[C@@H]4O[C@H](C(=O)[O-])[C@@H](O[C@H]5O[C@H](COS(=O)(=O)[O-])[C@@H](O)[C@H](O)[C@H]5NS(=O)(=O)[O-])[C@H](O)[C@H]4O)[C@H](OS(=O)(=O)[O-])[C@H]3NS(=O)(=O)[O-])[C@H](O)[C@H]2OS(=O)(=O)[O-])[C@H](O)[C@H]1NS(=O)(=O)[O-].[Na+].[Na+].[Na+].[Na+].[Na+].[Na+].[Na+].[Na+].[Na+].[Na+] [Fondaparinux, methyl O-2-deoxy-6-O-sulfo-2-(sulfoamino)-α-D-glucopyranosyl-(1→4)-O-β-D-glucopyra-nuronosyl-(1→4)-O-2-deoxy-3,6-di-O-sulfo-2-(sulfoamino)-α-D-glucopyranosyl-(1→4)-O-2-O-sulfo-α-L-idopyranuronosyl-(1→4)-2-deoxy-6-O-sulfo-2-(sulfoamino)-α-D-glucopyranoside, decasodium salt] | 3 |  |  |  | approximately 3 hours | 100 | 130 | about 300 times | 
